pEC50, pIC50: −log10 of the molar value. In brackets after ≈: the same amount, converted by molar mass.
How the values were obtained:
Toxoplasma gondii [1] = assay: Antiparasitic activity against Toxoplasma gondii tachyzoites; type: functional, organism-based; conditions: Toxoplasma gondii; for pEC50: read-out: ED50 (the source's name); for IC50 / pIC50: read-out: IC50
Vero = assay: Cytotoxicity against African green monkey Vero cells assessed as cell growth inhibition by alamar blue assay; type: functional; conditions: Chlorocebus sabaeus, read-out: ED50 (the source's name)
[2] = Inhibition of Toxoplasma gondii FPPS incubated for 30 mins by scintillation counting analysis
Toxoplasma gondii [3] = assay: Antiparasitic activity against Toxoplasma gondii tachyzoites infected in human HeLa cells measured after 24 hrs by MTT assay; type: functional, organism-based
HeLa = assay: Cytotoxicity against human HeLa cells assessed as cell growth inhibition measured after 24 hrs by MTT assay; type: functional, cell-based
[4] = Selectivity index, ratio of IC50 for cytotoxicity against human HeLa cells to IC50 for antiparasitic activity against Toxoplasma gondii tachyzoites infected in human HeLa cells; type: toxicity, cell-based; conditions: for selectivity ratio: read-out: Ratio IC50
[5] = Inhibition of Toxoplasma gondii recombinant ENR in presence of NADH by absorbance based analysis
Toxoplasma gondii [6] = assay: Antiparasitic activity against Toxoplasma gondii infected in HFF cells by fluorescence based analysis; type: functional, organism-based
[7] = Inhibition of Toxoplasma gondii recombinant PNP
Toxoplasma gondii [8] = assay: Antiparasitic activity against Toxoplasma gondii tachyzoites infected in mouse assessed as survival at 10 mg/kg relative to control; type: functional

O=P(O)(O)C(CNCCOc1cccc(Oc2ccccc2)c1)P(=O)(O)O
pEC50 (Toxoplasma gondii [1]): 5.62 | pEC50 (Vero): < 4.30

CCCCCCCNCC(O)(P(=O)(O)O)P(=O)(O)O
pIC50 [2]: < 6.00

CCCCCCCCNCC(O)(P(=O)(O)O)P(=O)(O)O
pIC50 [2]: 7.41

N#CSCCOc1ccc(Oc2cccc(C(F)(F)F)c2)cc1
pEC50 (Toxoplasma gondii [1]): 5.78 | pEC50 (Vero): < 4.30

N#CSCCOc1ccc(Oc2ccccc2)cc1
pEC50 (Toxoplasma gondii [1]): 5.32 | pEC50 (Vero): 4.08

COc1cc(-n2cc(/C=C3/C[C@@]4(C)[C@H](CC[C@]5(C)[C@@H]4CC=C4[C@@H]6[C@@H](C)[C@H](C)CC[C@]6(C(=O)O)CC[C@]45C)C(C)(C)C3=O)nn2)cc(OC)c1OC
pIC50 (Toxoplasma gondii [3]; Toxoplasma gondii, HeLa, 24 h): 3.52 | pIC50 (HeLa; Homo sapiens, HeLa, 24 h): 3.45 | selectivity ratio [4]: 1.17

CCCc1ccc(Oc2ccc(N)cc2Cl)c(O)c1
pIC50 [5]: > 7.70 | pIC50 (Toxoplasma gondii [6]): 5.22

SPIRAMYCIN
pIC50 (Toxoplasma gondii [3]; hela): 3.58 | pIC50 (HeLa; hela): 3.72 | Ratio IC50 [4]: 0.72

O=c1[nH]cnc2c([C@@H]3N[C@H](CO)[C@@H](O)[C@H]3O)c[nH]c12 [FORODESINE]
pIC50 [7]: 9.43

CCCc1ccc(Oc2ccc(C#N)cc2Cl)c(O)c1
pIC50 [5]: > 7.70 | pIC50 (Toxoplasma gondii [6]): 5.22

Cc1nnsc1C(=O)NNC(=S)Nc1ccccc1Br
IC50 (Toxoplasma gondii [1]): 74.9 µg/mL

CC(=O)O[C@H]1C[C@@]2(C)[C@@H](C[C@@H](O)[C@H]3[C@@]4(C)CC[C@@H](O)[C@@H](C)[C@@H]4CC[C@@]32C)/C1=C(\CCC=C(C)C)C(=O)O [FUSIDIC ACID]
pIC50 (Toxoplasma gondii [1]): 5.15 | survival at 10 mg/kg (Toxoplasma gondii [8]): 90%

CCCCCCCCCCNCC(O)(P(=O)(O)O)P(=O)(O)O
pIC50 [2]: 6.90

C[C@@H](Oc1cc(-c2cnn(C3CCNCC3)c2)cnc1N)c1c(Cl)ccc(F)c1Cl [CRIZOTINIB]
pIC50 (Toxoplasma gondii [1]): 5.40

C[C@H]1[C@H](C)CC[C@]2(C(=O)OCCn3cnnc3-c3ccccc3)CC[C@]3(C)C(=CC[C@@H]4[C@@]5(C)CC[C@H](O)C(C)(C)[C@H]5CC[C@]43C)[C@H]12
pIC50 (Toxoplasma gondii [3]; Toxoplasma gondii, HeLa, 24 h): 4.06 | pIC50 (HeLa; Homo sapiens, HeLa, 24 h): 3.99 | selectivity ratio [4]: 1.15

O=C(NNC(=S)Nc1ccc(F)cc1)c1cccs1
IC50 (Toxoplasma gondii [1]): 33.2 µg/mL

N#CSCCOc1cccc2ccccc12
pEC50 (Toxoplasma gondii [1]): 5.50 | pEC50 (Vero): < 4.30

O=[N+]([O-])c1ccc(Oc2ccc(Cl)cc2O)c(Cl)c1
pIC50 [5]: > 7.70 | pIC50 (Toxoplasma gondii [6]): 5.40

CCCCCCC[S+]([O-])CC(P(=O)(O)O)P(=O)(O)O (configuration not stated)
pIC50 [2]: 8.05

CCCc1ccc(Oc2ccc([N+](=O)[O-])cc2Cl)c(O)c1
pIC50 [5]: > 7.70 | pIC50 (Toxoplasma gondii [6]): 5.22

Cc1nnsc1C(=O)NNC(=S)Nc1ccc(F)cc1F
IC50 (Toxoplasma gondii [1]): 92.3 µg/mL

Oc1cc(Cl)ccc1Oc1ccc(NCc2ccccc2)cc1Cl
pIC50 [5]: 7.89 | pIC50 (Toxoplasma gondii [6]): 6.70

N#CSCCOc1ccc2ccccc2c1
pEC50 (Toxoplasma gondii [1]): 5.44 | pEC50 (Vero): < 4.00

CCCCCCCCCC[S+]([O-])CC(P(=O)(O)O)P(=O)(O)O (configuration not stated)
pIC50 [2]: < 5.00

CCCCCCCCCCNCC(P(=O)(O)O)P(=O)(O)O
pIC50 [2]: 7.17

Oc1cc(Cl)ccc1Oc1ccc(Cn2ccnn2)cc1Cl
pIC50 [5]: 7.59 | pIC50 (Toxoplasma gondii [6]): 6.60

N#CSCCOc1ccc(Oc2ccncc2)cc1
pEC50 (Toxoplasma gondii [1]): 5.10 | pEC50 (Vero): < 3.70

N#CSCCOc1ccc(Oc2ccccn2)cc1
pEC50 (Toxoplasma gondii [1]): < 5.00 | pEC50 (Vero): < 3.70

N#CC(c1ccc(Cl)cc1)c1c(Cl)cc(-n2ncc(=O)[nH]c2=O)cc1Cl (configuration not stated) [DICLAZURIL]
pIC50 (Toxoplasma gondii [1]): 8.22 | survival at 10 mg/kg (Toxoplasma gondii [8]): 100%

N#CSCCOc1ccc(Oc2cccnc2)cc1
pEC50 (Toxoplasma gondii [1]): 5.43 | pEC50 (Vero): 3.87

N#CSCCOc1ccc(Oc2cccc(Oc3cccc(F)c3)c2)cc1
pEC50 (Toxoplasma gondii [1]): 5.79 | pEC50 (Vero): < 4.30

C[C@H]1[C@H](C)CC[C@]2(C(=O)O)CC[C@]3(C)C(=CC[C@@H]4[C@@]5(C)C/C(=C/c6cn(-c7ccccc7Cl)nn6)C(=O)C(C)(C)[C@H]5CC[C@]43C)[C@H]12
pIC50 (Toxoplasma gondii [3]; Toxoplasma gondii, HeLa, 24 h): 3.62 | pIC50 (HeLa; Homo sapiens, HeLa, 24 h): 3.33 | selectivity ratio [4]: 1.95

C[C@H]1[C@H](C)CC[C@]2(C(=O)O)CC[C@]3(C)C(=CC[C@@H]4[C@@]5(C)C/C(=C/c6cn(-c7ccccc7Br)nn6)C(=O)C(C)(C)[C@H]5CC[C@]43C)[C@H]12
pIC50 (Toxoplasma gondii [3]; Toxoplasma gondii, HeLa, 24 h): 3.52 | pIC50 (HeLa; Homo sapiens, HeLa, 24 h): 3.62 | selectivity ratio [4]: 0.8

N#CSCCOc1ccc(Oc2cccc(Oc3ccccc3Cl)c2)cc1
pEC50 (Toxoplasma gondii [1]): 5.67 | pEC50 (Vero): < 4.30

CCCCCCCCCNCC(F)(P(=O)(O)O)P(=O)(O)O
pIC50 [2]: 7.22

CCCCCCC[S+](C)CC(P(=O)(O)O)P(=O)(O)O (configuration not stated)
pIC50 [2]: 7.89

N#CSCCOc1ccc(Oc2cccc3ccccc23)cc1
pEC50 (Toxoplasma gondii [1]): 5.54

CCCCc1cn(Cc2ccc(Oc3ccc(Cl)cc3O)c(Cl)c2)nn1
pIC50 [5]: 7.37 | pIC50 (Toxoplasma gondii [6]): 6.60

Cc1occc1C(=O)NN=C(S)Nc1ccccc1
IC50 (Toxoplasma gondii [1]): 59 µg/mL

CCCCCCCCCCCCNCC(P(=O)(O)O)P(=O)(O)O
pIC50 [2]: 7.03

Oc1cc(Cl)ccc1Oc1ccc(CNc2ccccc2)cc1Cl
pIC50 [5]: 7.51 | pIC50 (Toxoplasma gondii [6]): < 5.00

CCCCCCCCCNCC(P(=O)(O)O)P(=O)(O)O
pIC50 [2]: 6.36

CCCCCNCC(O)(P(=O)(O)O)P(=O)(O)O
pIC50 [2]: 7.17

O=P(O)(O)C(CSCCOc1cccc(Oc2ccccc2)c1)P(=O)(O)O
pEC50 (Toxoplasma gondii [1]): 6.17 | pEC50 (Vero): < 4.00

N#CSCCOc1ccc(Oc2ccc3ccccc3c2)cc1
pEC50 (Toxoplasma gondii [1]): 5.65 | pEC50 (Vero): 3.98

CCCCCCCCNCC(F)(P(=O)(O)O)P(=O)(O)O
pIC50 [2]: 7.46

CO[C@H]1/C=C/O[C@@]2(C)Oc3c(C)c(O)c4c(O)c(c(/C=N/N5CCN(C6CCCC6)CC5)c(O)c4c3C2=O)NC(=O)/C(C)=C\C=C\[C@H](C)[C@H](O)[C@@H](C)[C@@H](O)[C@@H](C)[C@H](OC(C)=O)[C@@H]1C [RIFAPENTINE]
survival at 10 mg/kg (Toxoplasma gondii [8]): 90%

C[C@H]1[C@H](C)CC[C@]2(C(=O)O)CC[C@]3(C)C(=CC[C@@H]4[C@@]5(C)C/C(=C/c6cn(-c7ccccc7I)nn6)C(=O)C(C)(C)[C@H]5CC[C@]43C)[C@H]12
pIC50 (Toxoplasma gondii [3]; Toxoplasma gondii, HeLa, 24 h): 3.56 | pIC50 (HeLa; Homo sapiens, HeLa, 24 h): 3.64 | selectivity ratio [4]: 0.84

CCCCCCCCCCCCCCNCC(P(=O)(O)O)P(=O)(O)O
pIC50 [2]: 6.53

C[C@H]1[C@H](C)CC[C@]2(C(=O)OCCn3cnnc3-c3ccc(F)cc3)CC[C@]3(C)C(=CC[C@@H]4[C@@]5(C)CC[C@H](O)C(C)(C)[C@H]5CC[C@]43C)[C@H]12
pIC50 (Toxoplasma gondii [3]; Toxoplasma gondii, HeLa, 24 h): 4.29 | pIC50 (HeLa; Homo sapiens, HeLa, 24 h): 4.05 | selectivity ratio [4]: 1.44

N[C@@H]1[C@H]2CN(c3nc4c(cc3F)c(=O)c(C(=O)O)cn4-c3ccc(F)cc3F)C[C@@H]12 [TROVAFLOXACIN]
survival at 10 mg/kg (Toxoplasma gondii [8]): 90%

S=c1[nH]nc(-c2cccs2)[nH]1
pIC50 [7]: 3.71

N#Cc1ccccc1CNc1ccc(Oc2ccc(Cl)cc2O)c(Cl)c1
pIC50 [5]: 7.80 | pIC50 (Toxoplasma gondii [6]): < 5.00

C/C(=N\Nc1nc(-c2ccc(Cl)c(Cl)c2)cs1)c1ccc(Nc2nc(N)nc(N)n2)cc1
IC50 (Toxoplasma gondii [1]): 14.9 µg/mL

Oc1ccc(Oc2ccc(Cl)cc2O)c(Cl)c1
pIC50 [5]: 8.52 | pIC50 (Toxoplasma gondii [6]): 5.51

CCCCCCCC[S+]([O-])CC(P(=O)(O)O)P(=O)(O)O (configuration not stated)
pIC50 [2]: 7.80

N#CSCCOc1ccc(Oc2ccc(C(F)(F)F)cc2)cc1
pEC50 (Toxoplasma gondii [1]): 5.73 | pEC50 (Vero): < 4.30

CCCCCCCCC[S+]([O-])CC(P(=O)(O)O)P(=O)(O)O (configuration not stated)
pIC50 [2]: 7.25

CCCCCCCCCCCNCC(P(=O)(O)O)P(=O)(O)O
pIC50 [2]: 6.06

CC(=O)c1cc(Oc2ccccc2)ccc1OCCSC#N
pEC50 (Vero): 4.12

CCCCCCNCC(O)(P(=O)(O)O)P(=O)(O)O
pIC50 [2]: 7.29

O=C(Nc1ccc([N+](=O)[O-])cc1Cl)c1cc(Cl)ccc1O [NICLOSAMIDE]
MIC50 (Toxoplasma gondii [1]): 0.2 µM (≈ 0.0654 µg/mL)

N#Cc1ccc(Oc2ccc(Cl)cc2O)c(Cl)c1
pIC50 [5]: 7.62

Reference: ChEMBL document CHEMBL5230160, “Chemotherapeutics for Toxoplasma gondii: Molecular Biotargets, Binding Modes, and Structure-Activity Relationship Investigations” (J Med Chem, 2021)
